Measurements taken from patent US11766470B2, “Manufacture, formulation and dosing of apraglutide” (VectivBio AG, priority 2020, dated 2023).
Values joined by “and” are separate entries in the source; they are usually repeats but may differ in a detail not shown here. Identical values can stand only once. Square brackets hold non-standard residues; d marks the D form. Peptide text beside a SMILES is read from it. ξ: configuration not given here. Ile(3ξ) = CCC(C)[C@H](N)C(=O)O; Thr(3ξ) = CC(O)[C@H](N)C(=O)O; Nle = CCCC[C@H](N)C(=O)O

Columns and labels:
[1] = test system: patients with SBS-IF or SBS-II; assay: Safety assessments (adverse events) in Phase 2 metabolic balance trial (Example 6)
Protocol: (§1) Patients were treated with once weekly 5 mg apraglutide for four weeks. Apraglutide was provided as a freeze-dried powder for reconstitution in sterile water prior to injection, and treatments were administered as subcutaneous injections in the abdominal area. A 72-hour metabolic balance study was performed at baseline and at the end of the treatment period (starting one day after the fourth and last apraglutide injection). Each 72-hour metabolic balance study was performed during a five-day hospital admission. On the day of admission, patients were instructed to create a 24-hour drinking menu based on their habitual oral fluid intake. The drinking menu was to be followed during each balance study. On the second day of admission, just after the patients had urinated and emptied their stoma bags or defecated, the balance study was initiated. […] Daily PS and compliance to the predefined drinking menu was documented during admissions.
(§2) First, second and fourth apraglutide injections were performed at the hospital. Safety assessments included observation for injection site reactions, vital signs, blood samples, electrocardiogram (ECG), urinalysis and body weight. They were performed at baseline, during each injection of the trial drug, four days after first injection, at the end of treatment and 4-6 weeks after last dosing at the end of the trial, as shown in Table 20. Liver enzymes were measured prior to each drug administration.

[2] = Population PK/PD model of plasma apraglutide and plasma citrulline (healthy volunteers and SBS patients)
Source text: Plasma citrulline was used as a pharmacodynamic (“PD”) marker to describe the effect of apraglutide. Similar to the pharmacokinetic (“PK”) model development, the PK/PD model was developed for the healthy individuals from studies GLY-101-2015 and TA799-002 only. For development of the PD model, the PD observations were fitted together with the PK observations using the final PK model with its structure, residual error-, covariates- and random effects-models. The starting model was a turnover model where plasma citrulline was constantly synthesized and degraded with the synthesis rate ksyn and the degradation rate kdeg. Plasma apraglutide stimulated citrulline synthesis via a sigmoid Emax relationship with the baseline citrulline level R0, the half-maximal effect at the concentration EC50, the maximal effect Emax, and a Hill coefficient gamma. It was assumed that citrulline turnover was in steady state such that citrulline synthesis was determined solely by citrulline baseline and degradation. The population PK/PD of plasma apraglutide was established with data from two studies in healthy volunteers and two studies with SBS patients that tested doses between 2.5 and 50 mg SC.
The population PK/PD model was used to predict plasma apraglutide exposure and plasma citrulline trough concentration-time profiles with and without inter-individual variability for individuals with body weights between 40 and 120 kg receiving weekly doses of 2.5, 5, or 10 mg SC. […] Apraglutide exposure for body weights between 40 and 120 kg and apraglutide SC doses of 2.5, 5, or 10 mg was compared to post-hoc exposure estimates of SBS patients. Bracketing at a body weight of 50 kg between doses of 2.5 and 5 mg was simulated.
Plasma citrulline was described by a turnover model and maximal PD effect model.

[3] = test system: patients with SBS-IF or SBS-II; assay: Phase 2 open-label metabolic balance trial in SBS-IF and SBS-II patients (Example 6): 72-hour metabolic balance, body composition, plasma L-citrulline; type: in vivo, human; conditions: 5 mg once weekly
Protocol: Treatment with glucagon-like peptide-2 (GLP-2) analogs promotes intestinal adaptation in patients with short bowel syndrome (SBS). Apraglutide is a novel long-acting GLP-2 analog designed to enable once weekly dosing. This Phase 2 trial investigated the safety and efficacy of once weekly 5 mg apraglutide in patients with SBS intestinal failure (SBS-IF) and SBS intestinal insufficiency (SBS-II). In this open-label trial, 8 adult patients with SBS-IF (n=4) or SBS-II (n=4) and a fecal wet weight of >1500 g/day were treated with once weekly subcutaneous 5 mg apraglutide for 4 weeks. Safety was the primary endpoint. As secondary endpoints changes were examined from baseline in intestinal absorption of wet weight, energy (measured by bomb calorimetry) and electrolytes as well as fecal wet weight and urine production using 72-hour metabolic balance studies. Common treatment-related adverse events were consistent with the physiological effect of GLP-2 and included reduced stoma output (n=6), stoma complication (n=6), nausea (n=5), flatulence (n=4), polyuria (n=3) and abdominal pain (n=3).
A total of nine adult patients (aged ≥18 to ≤80 years) with SBS were screened, eight of whom enrolled in the trial: four patients had SBS-II and four patients had SBS-IF. Both subgroups of patients were included to investigate the safety and efficacy of apraglutide across the disease spectrum. Patient eligibility was assessed during a screening visit. Main inclusion criteria were SBS secondary to surgical resection of the small intestine with or without colon; at least six months since last surgical bowel resection; and a severe degree of malabsorption, defined as a fecal wet weight output≥1,500 g/day and a urine volume production<2000 mL/day.
Fecal output and urine volume production were confirmed during baseline examinations. Patients were excluded if they had clinical signs of active inflammatory bowel disease, a history of cancer within five years or an inadequate hepatic-, kidney- or heart function.
The contents of the buckets were weighed, processed intro dry matter, and analyzed as previously described: energy by bomb calorimetry, nitrogen by Kjeldahl's method, lipid by a modified Van de Kamer titration technique, carbohydrate by Englyst's method, sodium and potassium by flame photometry and calcium and magnesium by atomic absorption spectrometry. A 24-hour average was calculated based on the three 24-hour periods. Absolute changes were calculated as the difference between the baseline and the post-treatment value. Relative changes were calculated as absolute changes divided by baseline values multiplied by 100.
Body weight was measured using a levelled platform scale. Body composition was measured by dual-energy x-ray absorptiometry (Norland XR-36 DXA densitometer, Norland, Ford Atkinson, WI, USA) at baseline and post-treatment.
Blood samples for analysis of the plasma concentration of apraglutide and plasma concentration of fasting L-citrulline, a marker of enterocyte mass, were collected at baseline, during first and second injection (pre-dose and at sequential timepoints), four days after first injection and at the end of treatment. Blood sampling for apraglutide pharmacokinetics was also performed after the fourth and last injection covering 96 hours. […] Blood samples for anti-apraglutide antibodies were collected at baseline, at the end of treatment and at the 4-6 weeks follow-up visit. All eight patients tested negative for anti-apraglutide antibodies at baseline.
The primary endpoint of this trial was safety. Secondary endpoints were absolute and relative changes from baseline in dietary intake, fecal excretion and absorption of wet weight, energy, macronutrients and electrolytes, urine production, urine electrolyte excretion, body weight, body composition, bone mineral content, plasma L-citrulline as well as pharmacokinetic profiles. […]

[4] = test system: patients with SBS-IF or SBS-II; conditions: in vivo
Protocol: as §1, §2

[5] = comparison with other GLP-2 analogs

CCCC[C@H](NC(=O)[C@H](CCC(=O)O)NC(=O)[C@H](CC(=O)O)NC(=O)[C@H](CO)NC(=O)[C@H](Cc1ccccc1)NC(=O)[C@H](CO)NC(=O)CNC(=O)[C@H](CC(=O)O)NC(=O)CNC(=O)[C@@H](N)Cc1c[nH]cn1)C(=O)N[C@H](Cc1ccccc1)C(=O)N[C@H](C(=O)N[C@H](C(=O)N[C@@H](CC(C)C)C(=O)N[C@@H](CC(=O)O)C(=O)N[C@@H](CC(C)C)C(=O)N[C@@H](CC(C)C)C(=O)N[C@@H](C)C(=O)N[C@@H](C)C(=O)N[C@@H](CCCNC(=N)N)C(=O)N[C@@H](CC(=O)O)C(=O)N[C@@H](Cc1ccccc1)C(=O)N[C@H](C(=O)N[C@@H](CC(N)=O)C(=O)N[C@@H](Cc1c[nH]c2ccccc12)C(=O)N[C@@H](CC(C)C)C(=O)N[C@H](C(=O)N[C@@H](CCC(N)=O)C(=O)N[C@H](C(=O)N[C@@H](CCCCN)C(=O)N[C@H](C(=O)N[C@H](C(=O)N[C@@H](CC(=O)O)C(N)=O)C(C)O)C(C)CC)C(C)O)C(C)CC)C(C)CC)C(C)CC)C(C)O (stereo partly drawn) [apraglutide, L-histidyl-glycyl-L-aspartyl-glycyl-L-seryl-L-phenylalanyl-L-seryl-L-aspartyl-L-glutamyl-L-norleucyl-D-phenylalanyl-L-threonyl-Lisoleucyl-L-leucyl-L-aspartyl-L-leucyl-L-leucyl-L-alanyl-L-alanyl-L-arginyl-L-aspartyl-L-phenylalanyl-L-isoleucyl-L-asparaginyl-Ltryptophanyl-L-leucyl-L-isoleucyl-L-glutaminyl-L-threonyl-L-lysyl-L-isoleucyl-L-threonyl-Laspartic acid amide] (H-HGDGSFSDE[Nle][dF][Thr(3ξ)][Ile(3ξ)]LDLLAARDF[Ile(3ξ)]NWL[Ile(3ξ)]Q[Thr(3ξ)]K[Ile(3ξ)][Thr(3ξ)]D-NH2)
Injection site reactions (transient), number of patients ([1]; 5 mg): One | Patients with serious adverse events ([1]; 5 mg): two | Serious adverse events assessed as related to the trial drug (abdominal pain) ([1]; 5 mg): One | Serious adverse events, number ([1]; 5 mg): three | Safety and tolerability in words ([1]; 5 mg once weekly, four weeks, SBS-II and SBS-IF): safe and well tolerated | Abdominal pain, number of patients ([1]; SBS-IF (N = 4), 5 mg): 2 | Any adverse event, number of patients ([1]; SBS-IF (N = 4), 5 mg): 4 | Flatulence, number of patients ([1]; SBS-IF (N = 4), 5 mg): 1 | Fluid retention, number of patients ([1]; SBS-IF (N = 4), 5 mg): 1 | Gastrointestinal stoma complication, number of patients ([1]; SBS-IF (N = 4), 5 mg): 2 | Gastrointestinal stoma output abnormal, number of patients ([1]; SBS-IF (N = 4), 5 mg): 1 | Gastrointestinal stoma output decreased, number of patients ([1]; SBS-IF (N = 4), 5 mg): 3 | Nausea, number of patients ([1]; SBS-IF (N = 4), 5 mg): 4 | Polyuria, number of patients ([1]; SBS-IF (N = 4), 5 mg): 1 | Stoma complication, number of patients ([1]; SBS-IF (N = 4), 5 mg): 3 | Weight increased, number of patients ([1]; SBS-IF (N = 4), 5 mg): 0 | Abdominal pain, number of patients ([1]; SBS-II (N = 4), 5 mg): 1 | Any adverse event, number of patients ([1]; SBS-II (N = 4), 5 mg): 4 | Flatulence, number of patients ([1]; SBS-II (N = 4), 5 mg): 3 | Fluid retention, number of patients ([1]; SBS-II (N = 4), 5 mg): 1 | Gastrointestinal stoma complication, number of patients ([1]; SBS-II (N = 4), 5 mg): 3 | Gastrointestinal stoma output abnormal, number of patients ([1]; SBS-II (N = 4), 5 mg): 3 | Gastrointestinal stoma output decreased, number of patients ([1]; SBS-II (N = 4), 5 mg): 3 | Nausea, number of patients ([1]; SBS-II (N = 4), 5 mg): 1 | Polyuria, number of patients ([1]; SBS-II (N = 4), 5 mg): 2 | Stoma complication, number of patients ([1]; SBS-II (N = 4), 5 mg): 3 | Weight increased, number of patients ([1]; SBS-II (N = 4), 5 mg): 2 | Abdominal pain, number of patients ([1]; Total (N = 8), 5 mg): 3 | Any adverse event, number of patients ([1]; Total (N = 8), 5 mg): 8 | Flatulence, number of patients ([1]; Total (N = 8), 5 mg): 4 | Fluid retention, number of patients ([1]; Total (N = 8), 5 mg): 2 | Gastrointestinal stoma complication, number of patients ([1]; Total (N = 8), 5 mg): 5 | Gastrointestinal stoma output abnormal, number of patients ([1]; Total (N = 8), 5 mg): 4 | Gastrointestinal stoma output decreased, number of patients ([1]; Total (N = 8), 5 mg): 6 | Nausea, number of patients ([1]; Total (N = 8), 5 mg): 5 | Polyuria, number of patients ([1]; Total (N = 8), 5 mg): 3 | Stoma complication, number of patients ([1]; Total (N = 8), 5 mg): 6 | Weight increased, number of patients ([1]; Total (N = 8), 5 mg): 2 | Body weight coefficient on clearance βC1/F/B,W [2]: 1.8 | Dose at which citrulline saturation appears [2]: 5 mg | Dose coefficient on zero-order absorption duration βTk0,Dose [2]: 0.249 | Half-life, population PK estimate [2]: 31.2 h | Maximal effect (Emax) on citrulline synthesis [2]: 0.626 | Central volume of distribution, population PK estimate ([2]; 70-kg individual, 5 mg SC): 31.5 L | Clearance, population PK estimate ([2]; 70-kg individual, 5 mg SC): 16.8 L/day | Volume of distribution, population PK/PD model estimate ([2]; 70-kg individual, 5 mg SC): 31.3 L | Half-maximal effective apraglutide concentration (EC50) on plasma citrulline ([2]; plasma concentration, Emax turnover model): 0.0137 µg/mL | Body weight increase from baseline ([3]; 4 weeks): 1.8 kg | Bone mineral content change from baseline ([3]; 4 weeks): -20 g | Calcium, absorption, change from baseline ([3]; 4 weeks): 11 (−13 to 35); mmol/day | Calcium, dietary intake, change from baseline ([3]; 4 weeks): −2 (−5 to 2); mmol/day | Calcium, fecal output, change from baseline ([3]; 4 weeks): −13 (−36 to 11); mmol/day | Calcium, urine excretion, change from baseline ([3]; 4 weeks): 0 (−1 to 1) mmol/day | Carbohydrate, absorption, change from baseline ([3]; 4 weeks): 518 (112 to 924); kJ/day | Carbohydrate, dietary intake, change from baseline ([3]; 4 weeks): 154 (−268 to 575); kJ/day | Carbohydrate, fecal output, change from baseline ([3]; 4 weeks): −365 (−772 to 43); kJ/day | Energy, dietary intake, change from baseline ([3]; 4 weeks): 154 (−1,006 to 1,314); kJ/day | Fat mass decrease from baseline ([3]; 4 weeks): 1.1 kg | Lean body mass increase from baseline ([3]; 4 weeks): 1.7 kg | Lipid, absorption, change from baseline ([3]; 4 weeks): 376 (61 to 691); kJ/day | Lipid, dietary intake, change from baseline ([3]; 4 weeks): 67 (−638 to 771); kJ/day | Lipid, fecal output, change from baseline ([3]; 4 weeks): −309 (−969 to 351) kJ/day | Magnesium, absorption, change from baseline ([3]; 4 weeks): 0 (−9 to 9); mmol/day | Magnesium, dietary intake, change from baseline ([3]; 4 weeks): 1 (−2 to 3); mmol/day | Magnesium, fecal output, change from baseline ([3]; 4 weeks): 0 (−9 to 9); mmol/day | Magnesium, urine excretion, change from baseline ([3]; 4 weeks): 1 (−1 to 2), mmol/day | Plasma L-citrulline, absolute increase from baseline ([3]; 4 weeks): 15.2 µmol/L | Plasma L-citrulline, relative increase from baseline ([3]; 4 weeks): 66% | Potassium, absorption, change from baseline ([3]; 4 weeks): 18 (4 to 32; p < 0.05) mmol/day and 18 (4 to 32); mmol/day | Potassium, dietary intake, change from baseline ([3]; 4 weeks): 4 (−5 to 12); mmol/day | Potassium, fecal output, change from baseline ([3]; 4 weeks): −15 (−32 to 3); mmol/day | Potassium, urine excretion, change from baseline ([3]; 4 weeks): 13 (6 to 20); mmol/day | Protein, absorption, change from baseline ([3]; 4 weeks): 104 (−205 to 412); kJ/day | Protein, dietary intake, change from baseline ([3]; 4 weeks): −41 (−274 to 191); kJ/day | Protein, fecal output, change from baseline ([3]; 4 weeks): −145 (−497 to 207); kJ/day | Sodium, absorption, change from baseline ([3]; 4 weeks): 38 (3 to 74; p < 0.05) mmol/day and 38 (3 to 74); mmol/day | Sodium, dietary intake, change from baseline ([3]; 4 weeks): −5 (−30 to 21); mmol/day | Sodium, fecal output, change from baseline ([3]; 4 weeks): −43 (−92 to 6); mmol/day | Sodium, urine excretion, change from baseline ([3]; 4 weeks): 27 (5 to 49); mmol/day | Wet weight, absorption, change from baseline ([3]; 4 weeks): 741 (194 to 1287; p < 0.05) g/day and 741 (194 to 1,287); g/day | Wet weight, dietary intake, change from baseline ([3]; 4 weeks): 61 (−84.0 to 207); g/day | Wet weight, fecal output, change from baseline ([3]; 4 weeks): −680 (−1200 to −159; p < 0.05) ^ g/day and −680 (−1,200 to −159); g/day | Wet weight, urine (urine production), change from baseline ([3]; 4 weeks): 560 (72 to 1048; p < 0.05) g/day and 560 (72 to 1,048); g/day | Energy, absorption, change from baseline ([3]; 4 weeks, bomb calorimetry): 1,095 kJ/day | Potassium, absorption, change from baseline ([3]; 4 weeks, listed as Apraglutide): 18 mmol/day | Potassium, urine excretion, change from baseline ([3]; 4 weeks, listed as Apraglutide): 13 mmol/day | Sodium, absorption, change from baseline ([3]; 4 weeks, listed as Apraglutide): 38 mmol/day | Sodium, urine excretion, change from baseline ([3]; 4 weeks, listed as Apraglutide): 27 mmol/day | Wet weight, absorption, change from baseline ([3]; 4 weeks, listed as Apraglutide): 741 g/day | Wet weight, fecal output, change from baseline ([3]; 4 weeks, listed as Apraglutide): -680 g/day | Wet weight, urine (urine production), change from baseline ([3]; 4 weeks, listed as Apraglutide): 560 g/day | Change from baseline increase in urinary input [3, 5]: 140.1% | Change in baseline in energy absorption [3, 5]: 1,074 kj/day | Change in baseline in wet weight absorption [3, 5]: 760.4 g/day | Deaths [4]: no deaths occurred
